Results reported in article PMC10762035, “Molecular basis of human trace amine-associated receptor 1 activation” (Nature Communications, 2024).
Where a chain is given by its changes, count along the chain named. Where “and” joins values, the source holds several entries; their conditions need not be identical. Identical values can stand only once.

Assays:
Type in all cases: cell-based
hTA1 C13S = biological target: T1, hTA1 C13S (Homo sapiens, UniProt Q96RJ0, C13S); assay: GloSensor cAMP accumulation assay, C13S mutant; conditions: for C13S - Normalized Luminescence Counts (N=2): log[Compound], single wells
T1 construct: expressed in transfected cells; host or cells: HEK293T
T1 sequence (Q96RJ0 1-339 C13S): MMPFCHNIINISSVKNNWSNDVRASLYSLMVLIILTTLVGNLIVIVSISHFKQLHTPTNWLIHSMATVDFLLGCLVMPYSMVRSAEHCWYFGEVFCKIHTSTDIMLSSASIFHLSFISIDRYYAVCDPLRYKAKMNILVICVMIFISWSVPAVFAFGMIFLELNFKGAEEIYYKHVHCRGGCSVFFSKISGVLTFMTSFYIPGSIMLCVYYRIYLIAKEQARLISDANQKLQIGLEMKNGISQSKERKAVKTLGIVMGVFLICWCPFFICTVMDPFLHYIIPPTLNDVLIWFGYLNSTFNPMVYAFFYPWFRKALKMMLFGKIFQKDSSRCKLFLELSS

hTA1 C96S = biological target: T2, hTA1 C96S (Homo sapiens, UniProt Q96RJ0, C96S); assay: GloSensor cAMP accumulation assay, C96S mutant; conditions: log[Compound]
T2 construct: expressed in transfected cells; host or cells: HEK293T
T2 sequence (Q96RJ0 1-339 C96S): T1 sequence (Q96RJ0 1-339 C13S) with S13C, C96S

hTA1 I290N = biological target: T3, hTA1 I290N (Homo sapiens, UniProt Q96RJ0, I290N); assay: GloSensor cAMP accumulation assay, I290N mutant;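 further: cells transiently co-expressing hTA1 and the GloSensor cAMP biosensor, luminescence read 30 min after compound addition at room temperature, efficacy scaled to the maximal β-PEA response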
T3 construct: expressed in transfected cells; host or cells: HEK293T
T3 sequence (Q96RJ0 1-339 I290N): T1 sequence (Q96RJ0 1-339 C13S) with S13C, I290N

[1] = biological target: T4, β2AR-Nterm-hTA1-F112^3.41W (CryoEM Construct) (Homo sapiens, UniProt Q96RJ0, F112W); assay: GloSensor cAMP accumulation assay, cryoEM construct;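 further: cells transiently co-transfected with the receptor construct and GloSensor cAMP biosensor, luminescence read after 30 min compound exposure at room temperature in the dark as cAMP accumulation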;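 on Normalized Luminescence Counts (N=2): normalized to the maximum response of β-PEA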
T4 construct: FLAG (N); 10xHis (N); TEV protease site (N); expressed in transfected cells; host or cells: HEK293T

hTA1 = biological target: T5, hTA1 (Homo sapiens, UniProt Q96RJ0); assay: GloSensor cAMP accumulation assay, concentration response, wild-type hTA1 in transfected HEK293T cells;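 further: luminescence read after 30 min compound exposure at room temperature in cells preloaded with D-Luciferin, reflecting Gs-driven cAMP rise, efficacy scaled to the maximal β-PEA response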
T5 construct: expressed in transfected cells; host or cells: HEK293T
T5 sequence (Q96RJ0 1-339): T1 sequence (Q96RJ0 1-339 C13S) with S13C

[2] = Cryo EM Construct minus WT average
[3] = Cryo EM Construct, mean of each independent experiment (3 replicates)

T4 sequence (Q96RJ0 with tags, fused parts or gaps F112W): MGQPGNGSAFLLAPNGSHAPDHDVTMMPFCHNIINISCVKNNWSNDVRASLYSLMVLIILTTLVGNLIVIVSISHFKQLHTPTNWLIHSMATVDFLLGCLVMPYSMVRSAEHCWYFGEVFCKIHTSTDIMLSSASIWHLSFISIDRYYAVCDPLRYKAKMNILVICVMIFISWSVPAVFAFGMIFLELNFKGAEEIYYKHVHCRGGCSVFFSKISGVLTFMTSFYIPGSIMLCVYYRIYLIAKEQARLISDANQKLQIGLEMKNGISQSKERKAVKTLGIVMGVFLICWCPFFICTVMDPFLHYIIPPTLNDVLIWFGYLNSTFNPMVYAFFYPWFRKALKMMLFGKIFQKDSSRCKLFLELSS

**Q.** For `Cc1c(F)cccc1[C@H]1COC(N)=N1` [Ro5263397], which Emax values (hTA1 C13S; C13S, Mean of fit per experiment) is on record?
**A.** The Emax values was 73.5469 and 88.9072.

**Q.** And the “Span ± SEM (Emax normalized to β-PEA)” value (hTA1 C13S; C13S, n=2)?
**A.** Its value is 81.23 ± 7.68.

**Q.** What about the “pEC50 ± SEM” value (hTA1 C13S; C13S, n=2) of the same compound?
**A.** Its value is 8.6 ± 0.08.

**Q.** What about the EC50 (hTA1 C13S; C13S, n=2, read-out: EC50) of the same compound?
**A.** Its EC50 is 2.48 nM.

**Q.** And the “pEC50 values, Mean” value (hTA1 C13S; hTA1 C13S, mean of 3 replicates, one line per independent experiment)?
**A.** Its value is 8.7547 and 8.4539.

**Q.** And the “C13S - Normalized Luminescence Counts (N=2)” value (hTA1 C13S; M = -5)?
**A.** Its value is 76.1278 and 93.1423 and 84.8444 and 95.4829 and 105.462 and 103.819.

**Q.** And the “C13S - Normalized Luminescence Counts (N=2)” value (hTA1 C13S; M = -5.522)?
**A.** Its value is 68.8196 and 89.374 and 78.4497 and 85.6471 and 106.265 and 88.9317.

**Q.** What about the “C13S - Normalized Luminescence Counts (N=2)” value (hTA1 C13S; M = -6) of the same compound?
**A.** The value was 64.1759 and 93.599 and 66.6881 and 75.8649 and 92.3769 and 86.7896.

**Q.** What about the “C13S - Normalized Luminescence Counts (N=2)” value (hTA1 C13S; M = -6.522) of the same compound?
**A.** The value was 56.487 and 80.4671 and 60.7882 and 74.8831 and 89.3601 and 80.042.

**Q.** And the “Normalized Luminescence Counts” value (hTA1 C96S; C96S, M = -5, single replicates (N=2))?
**A.** Its value is 9.313 (2×) and 10.6308 and 10.8582 and 5.048 and -2.698.

**Q.** What about the “Normalized Luminescence Counts” value (hTA1 C96S; C96S, M = -5.522, single replicates (N=2)) of the same compound?
**A.** The value was 2.723 and 6.018 and 1.4045 and 10.8582 and 101.879 and 20.5413.

**Q.** What about the “Normalized Luminescence Counts” value (hTA1 C96S; C96S, M = -6, single replicates (N=2)) of the same compound?
**A.** Its value is 1.4045 (2×) and 2.064 and 3.112 and 14.7315 and -4.6346.

**Q.** What about the “Normalized Luminescence Counts” value (hTA1 C96S; C96S, M = -6.522, single replicates (N=2)) of the same compound?
**A.** The value was -1.891 (2×) and 0.08646 and -2.698 (2×) and -0.7614.

**Q.** And the “Normalized Luminescence Counts” value (hTA1 C96S; C96S, M = -7, single replicates (N=2))?
**A.** Its value is -0.5726 and 2.723 and -2.55 and 37.9707 and -8.508 and -4.6346.

**Q.** What about the “Normalized Luminescence Counts” value (hTA1 C96S; C96S, M = -7.522, single replicates (N=2)) of the same compound?
**A.** The value was 2.064 and 1.4045 and -1.232 and -2.698 and 12.7948 and -14.3176.

**Q.** And the “Normalized Luminescence Counts” value (hTA1 C96S; C96S, M = -8, single replicates (N=2))?
**A.** Its value is -0.5726 and 0.08646 and -1.891 and 14.7315 (3×).

**Q.** And the “Normalized Luminescence Counts” value (hTA1 C96S; C96S, M = -8.522, single replicates (N=2))?
**A.** Its value is 0.08646 and 2.064 and -1.232 and 22.4779 and 6.985 (2×).

**Q.** What about the “Normalized Luminescence Counts” value (hTA1 C96S; C96S, M = -9, single replicates (N=2)) of the same compound?
**A.** Its value is -3.868 and 0.08646 and -3.209 and 10.8582 (3×).

**Q.** What about the “Normalized Luminescence Counts” value (hTA1 C96S; C96S, M = -9.522, single replicates (N=2)) of the same compound?
**A.** The value was -3.209 and 0.08646 and -5.186 and 1.175 and 3.112 (2×).

**Q.** What about the “Normalized Luminescence Counts” value (hTA1 C96S; C96S, M = -10, single replicates (N=2)) of the same compound?
**A.** The value was -3.209 and 0.08646 and -0.5726 and 28.2877 and 5.048 and 61.21.

**Q.** What about the “Normalized Luminescence Counts” value (hTA1 C96S; C96S, M = -10.522, single replicates (N=2)) of the same compound?
**A.** The value was -2.55 and -0.5726 and -3.868 and -0.7614 (2×) and 1.175.

**Q.** What about the “Normalized Luminescence Counts” value (hTA1 C96S; C96S, M = -11, single replicates (N=2)) of the same compound?
**A.** Its value is 0.7455 (2×) and 4.041 and 47.6538 and 53.4636 and 12.7948.

**Q.** What about the “Normalized Luminescence Counts” value (hTA1 C96S; C96S, M = -11.522, single replicates (N=2)) of the same compound?
**A.** The value was 2.064 and 4.7 and 0.08646 and 8.922.

**Q.** And the “Normalized Luminescence Counts” value (hTA1 C96S; M = -11.522, single replicates, mutant block above C178S)?
**A.** The value was 1.347 and 1.551 and 1.574 and 1.444 and 1.07 and 0.4821.

**Q.** What about the “Normalized Luminescence Counts” value (hTA1 C96S; M = -12, single replicates, mutant block above C178S) of the same compound?
**A.** Its value is 2.211 and 3.099 and 1.62 and 0.7492 and 1.283 and 0.5889.

**Q.** What about the “Normalized Luminescence Counts” value (hTA1 C96S; M = -12.522, single replicates, mutant block above C178S) of the same compound?
**A.** The value was 0.07201 and 0.2541 and -0.1784 and 1.444 and 0.7492 and -0.5864.

**Q.** And the “Span ± SEM (Emax normalized to β-PEA)” value (hTA1 I290N; I290N, n=2)?
**A.** Its value is 83.69 ± 1.69.

**Q.** What about the “pEC50 ± SEM” value (hTA1 I290N; I290N, n=2) of the same compound?
**A.** Its value is 8.33 ± 0.07.

**Q.** What about the EC50 (hTA1 I290N; I290N, n=2, read-out: EC50) of the same compound?
**A.** The EC50 was 4.63 nM.

**Q.** What about the “cAMP accumulation response, single replicate values (source data, Supplementary Figure 5)” value (hTA1 I290N; hTA1 I290N (N=2), log[Compound], M = -5) of the same compound?
**A.** The value was 101.804 and 110.08 and 95.4137 and 103.531.

**Q.** What about the “ΔpEC50 values (each mutant value - WT average), Mean” value (hTA1 I290N; hTA1 I290N mutant minus WT average) of the same compound?
**A.** The value was -0.535 and -0.459.

**Q.** What about the “pEC50 values, Mean” value (hTA1 I290N; hTA1 I290N mutant, Figure 3B source data, each grid row a separate experiment, 3 replicates) of the same compound?
**A.** Its value is 8.296 and 8.372.

**Q.** What about the “Emax values, Mean” value (hTA1 I290N; hTA1 I290N mutant, β-PEA set to 100, each grid row a separate experiment, 3 replicates) of the same compound?
**A.** Its value is 85.3822 and 81.9937.

**Q.** What about the “ΔEmax values (each mutant value - WT average), Mean” value [1, 2] of the same compound?
**A.** The value was 19.0137 and 21.294.

**Q.** And the “ΔpEC50 values (each mutant value - WT average), Mean” value [1, 2]?
**A.** The value was -0.1667 and 0.1313.

**Q.** What about the “Emax values, Mean” value [1, 3] of the same compound?
**A.** The value was -0.1667 and 0.1313.

**Q.** And the “pEC50 values, Mean” value [1, 3]?
**A.** Its value is 8.664 and 8.962.

**Q.** What about the “Normalized Luminescence Counts (N=2)” value ([1]; CryoEM Construct, log[Compound], M = -5, single replicates) of the same compound?
**A.** Its value is 130.633 and 139.904 and 147.826 and 114.773.

**Q.** What about the “Span ± SEM (Emax normalized to β-PEA)” value ([1]; CryoEM Construct, n=2) of the same compound?
**A.** Its value is 106.6 ± 2.69.

**Q.** And the “pEC50 ± SEM” value ([1]; CryoEM Construct, n=2)?
**A.** Its value is 8.82 ± 0.06.

**Q.** And the EC50 ([1]; CryoEM Construct, n=2, read-out: EC50)?
**A.** The EC50 was 1.5 nM.

**Q.** What about the “pEC50 values, Avg” value (hTA1; WT hTA1, average of the two experiments, Figure 2B source data) of the same compound?
**A.** Its value is 8.831.

**Q.** What about the “pEC50 values, Mean” value (hTA1; WT hTA1, each line an independent experiment, 3 replicates, Figure 2B source data) of the same compound?
**A.** Its value is 8.992 and 8.671.

**Q.** And the “Emax values, Mean” value (hTA1; WT hTA1, β-PEA = 100, each line an independent experiment, 3 replicates)?
**A.** Its value is 87.687 and 85.7197.

**Q.** What about the “Emax values, Avg” value (hTA1; WT, average of the experiments, β-PEA = 100) of the same compound?
**A.** Its value is 86.7.

**Q.** And the “Emax values, Avg” value (hTA1; WT, average of the two experiments)?
**A.** The value was 86.7.

**Q.** And the “Emax values, Mean” value (hTA1; WT, mean of each independent experiment (3 replicates), β-PEA = 100)?
**A.** The value was 87.687 and 85.7197.

**Q.** What about the “Emax values, Mean” value (hTA1; WT, single experiments (3 replicates each), β-PEA = 100) of the same compound?
**A.** Its value is 87.687 and 85.7197.

**Q.** What about the “pEC50 ± SEM” value (hTA1; wt hTA1, HEK293T, n=3) of the same compound?
**A.** Its value is 8.83 ± 0.09.

**Q.** And the EC50 (hTA1; wt hTA1, HEK293T, n=3, read-out: EC50)?
**A.** The EC50 was 1.47 nM and 1.48 nM.

**Q.** And the Emax (hTA1; wt hTA1, relative to β-PEA)?
**A.** The Emax was 86.7%.
